US20020142347A1, “Biosensor” (BIOSENSOR ApS, priority 2000, published 2002)
Residue numbers refer to the chain shown, from its start. In names and notes the source's numbering stands. Read-outs that look alike come from different tables or passages of the source. Blank lines part the entries; values can stand above or below the molecule they belong to.

Assays:
M24C-badan ACBP = target: T1, M24C-badan ACBP (Bos taurus, UniProt P07107, M25C); experiment: Isothermal titration micro calorimetry of acyl-CoA binding to M24C-badan ACBP; design: species or system bovine; conditions: isotermal titration micro calorimetry
T1 construct: made in house; host or cells: E. coli BL21(DE3)pLysS, pET3a vector
T1 sequence (P07107 2-87 M25C): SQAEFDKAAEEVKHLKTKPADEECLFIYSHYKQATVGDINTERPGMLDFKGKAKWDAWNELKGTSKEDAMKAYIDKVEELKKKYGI
Procedure: Quantitative determination of binding affinities (KD) were performed by isothermal titration micro calorimetry as previously described (Faergeman et. al., 1996; Biochemistry 35, 14118-14126). Qualitative evaluation of relative binding affinities were determined by isoelectrical focusing using the Pharmacia Fast Gel system according to the prescriptions given by the manufacture. Fluorescence emission changes induced by acyl-CoA binding to badan modified protein were determined as follows: 5 μl portions of acyl-CoAs were added from stock solutions disolved in binding buffer, (10 mM Hepes, 150 mM NaCL, 1 mM NaHPO4, pH 7.4) containing 3.4 μM Badan derivatized protein to a 1 ml 3.4 μM solution of the Badan derivatized ACBP in the same buffer. The fluorescence emission was measured on a SPEX FLOUROLOG (Industries Inc, Edison N.J., USA) with excitation at 400 nm and emission scan from 400 nm to 550 nm. The concentration of acyl-CoA in the aqueous phase was determined from the fluorescence emission sensitivities at 495 and 470 nm repectively essentially by the method described by (Grynkiewickz et. al.,1985, J. Biol. Chem. 260, 3440-3450) according to which: […]

FACI-24 [1] = target: T2, FACI-24 (Bos taurus, UniProt P07107, M25C); experiment: Fluorescence titration equilibrium binding analysis of CoA and acyl-CoA esters to FACI-24; design: species or system bovine; conditions: FACI-24 (1.5 μM) titrated with increasing CoA and acyl-CoA concentration; fitted binding curves, emission 460 nm; read-out: Kd (nM) ± S.E.
T2 construct: made in house; host or cells: E. coli BL21(DE3)pLysS, pET3a vector
T2 sequence (P07107 2-87 M25C): T1 sequence (P07107 2-87 M25C)
Procedure: Development of a mathematical expression describing the relationship between acyl-CoA concentration and FACI-24 fluorescence was performed essentially as by Richieri et al 1992, J Biol Chem, 267:23495-23501. However, where ligand binding to ADIFAB induces both a fluorescence intensity increase around 505 nm and a fluorescence intensity decrease around 432 nm, ligand binding to FACI-24 only causes an increase in fluorescence around 460 nm.
Derivatisation of an expression for the fluorescence value as a function of the acyl-coA concentration was done using the Scatchard equation as a starting point: [formula]
which has been used to fit the titration data.
The curves represent the best fit analysis from two independent experiment calculated and normalized as described above. The FACI-24 binding affinity increases dramatically when the acyl-chain length increases from C8 to C10 and C12, a smaller but significant drop in Kd is seen by increasing chain length from C12 to C14. C14 to C18 saturated acyl-CoA esters and C18:1-CoA binds with similar and very high affinities to FACI-24. In >0.1 M salt, FACI-24 binds acyl-CoAs with higher affinity and similar specificity as native unmodified bovine ACBP. The Kd for binding of C12-CoA and C16-CoA to native ACBP is 40 and 2.0 nM, respectively (Fulcery et al Biochemical, 1997, 325:423-428; Færgeman et al 1996, Biochemistry, 35:14118-14126). FACI-24 is highly specific for binding long-chain acyl-CoA esters.
(§1) Titration of FACI with acyl-CoAs was done using a SPEX FLOUROLOG (Industries Inc, Edison N.J., USA) with excitation at 387 nm and emission at 460 nm, with both excitation and emission slits set to 4.5 nm. FACI (0.5-4.5 uM, as indicated) was dissolved in 1.5 ml binding buffer (10 mM HEPES 150 mM NaCl, 5 mM KCl, 1 mM Na2HPO4, pH 7.4) and titrated with a 10 μM acyl-CoA dissolved in binding buffer, with or without FACI added, as indicated. Fluorescence emission values (counts per second) measured without FACI added to the ligand stock solution were corrected for titrand dilution.
Up to four parameters were fitted in this way, these were B, representing the point of saturation on the X axis, H, representing the maximum fluorescence, i.e. the fluorescence at saturating concentration of acyl-CoA, L, the minimum fluorescence value, i.e. the fluorescence of FACI-24 alone in buffer, and K, the Kd value lor the acyl-CoA in question. Initial estimates for the fittable parameters were typically: B=1, H=maximum fluorescence value measured, L=minimum fluorescence value measured (at acyl-CoA-concentration=0), and K as judged from the raw data, typically from 0.0001 uM to 0.1 uM for acyl-CoA longer than C10:0-CoA.
For each acyl-CoA at least two titrations and fittings were performed. To consider two or more titrations of the same acyl-CoA together and obtain a Kd value using all these titrations, both axes of the raw data were standardised using the fitted values of B, H and L in this way:
X axis standard=(raw X axis values)/Bfitted
Y axis standard=[(raw Y axis values)−Lfitted]/[Hfitted−Lfitted]
In this way all Y axis values should come to lie between 0 and 1 and the X axis value should be 1 at the point of saturation (FACI-24:acyl-CoA 1:1). Such adjusted data were pooled and fitted using DataFit. Typically, both H and B fitted to values close to 1 and L fitted to values close to 0. K was typically fitted to values somewhere between the two values obtained for the raw data.
This could be overcome by removing B from the fittable parameters list and instead setting it to a constant value of 1 and fitting again. This was typically done for both the raw and the standardised data.

FACI-24 [2] = target: T2, FACI-24; experiment: Fluorescence emission change of FACI-24 on titration with CoA and acyl-CoA esters; type: binding, bovine; conditions: emission maximum without ligand 510 nm; excitation 400 nm
Procedure: (§2) Quantitative determination of binding affinities (KD) were performed by isothermal titration micro calorimetry as previously described (Faergeman et. al., 1996; Biochemistry 35, 14118-14126). Qualitative evaluation of relative binding affinities were determined by isoelectrical focusing using the Pharmacia Fast Gel system according to the prescriptions given by the manufacture. Fluorescence emission changes induced by acyl-CoA binding to badan modified protein were determined as follows: 5 μl portions of acyl-CoAs were added from stock solutions disolved in binding buffer, (10 mM Hepes, 150 mM NaCL, 1 mM NaHPO4, pH 7.4) containing 3.4 μM Badan derivatized protein to a 1 ml 3.4 μM solution of the Badan derivatized ACBP in the same buffer. The fluorescence emission was measured on a SPEX FLOUROLOG (Industries Inc, Edison N.J., USA) with excitation at 400 nm and emission scan from 400 nm to 550 nm. The concentration of acyl-CoA in the aqueous phase was determined from the fluorescence emission sensitivities at 495 and 470 nm repectively essentially by the method described by (Grynkiewickz et. al.,1985, J. Biol. Chem. 260, 3440-3450) according to which:
(§3) Fluorescence titration emission spectra from 415 nm to 550 nm (excitation at 400 nm) were performed for CoA, C4:0-, C8:0-, C12:0-, C16:0-, and C20:0-CoA with all four mutated and badan modified proteins.
The emission maximum of FACI-24 without ligand added was 510 nm and titration with CoA, C4:0-, C8:0-, C12:0-, […], C16:0- and C20:0-CoA caused 0, 16, 34, 42, 46 and 46 nm downshift in emission maximum, respectively (results not shown). C16:0-CoA induced a 5,5 fold increase in emission at 464 nm (FIG. 10).
as §1

native bovine ACBP = target: T3, native bovine ACBP (Bos taurus, UniProt P07107); conditions: isothermal titration microcalorimetry, >0.1 M salt; literature; read-out: KD for binding to native bovine ACBP; cited from earlier work
T3 sequence (P07107 1-87): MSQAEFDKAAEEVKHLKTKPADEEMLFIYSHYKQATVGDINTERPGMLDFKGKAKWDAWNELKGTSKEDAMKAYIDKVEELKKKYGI

FACI53 = target: T4, FACI53 (Bos taurus, UniProt P07107, A54C); experiment: Fluorescence emission change of FACI-53 on titration with CoA and acyl-CoA esters; type: binding, bovine
T4 construct: badan (6-bromoacetyl-2-dimethylaminonaphthalene) fluorophore on the introduced Cys-53; made in house; host or cells: E. coli BL21(DE3)pLysS, pET3a vector
T4 sequence (P07107 2-87 A54C): T1 sequence (P07107 2-87 M25C) with C24M, A53C
Procedure: as §2, §3
Titration of FACI-53 dissolved in binding buffer with the above mentioned acyl-CoA esters produced a smooth downward shift in fluorescence emission maximum from 525 nm when no ligand was present to 508, 503, 490, 492, 496 and 514 with increasing concentrations of CoA, C4:0-, C8:0-, C12:0-, C16:0- and C20:0-CoA respectively.

[3] = Fluorescence response of the Phe-49_Cys49 badan derivative of bovine ACBP to ligands; type: binding; conditions: badan group exposed to the environment
Procedure: Reference is made to FIG. 2. and FIG. 3. which depict the emission spectra of FACI24 and FACI53 titrated with increasing concentrations of CoA, C4-, C8-, C12-, C16- and C20-CoA esters. The addition of ligand and measurement of emission of FACI24 and FACI53 was performed as described in example 2. The increased addition of ligand to the mutated and modified proteins caused a proportional spectral change. The normal physiological binding profile was confirmed by direct binding studies using isoelectrical focusing as predicted in FIG. 4. […] The results clearly indicate that fluorescence emission at 470 nm may provide a measure for the concentration of free unbound long-chain(>C12)-acyl-CoA ester.
The two sensors presented herein together act as high sensitivity sensors in the chain length range from C8-CoA to C20-CoA. […]
Quantitative determination of binding affinities (KD) were performed by isothermal titration micro calorimetry as previously described (Faergeman et. al., 1996; Biochemistry 35, 14118-14126). Qualitative evaluation of relative binding affinities were determined by isoelectrical focusing using the Pharmacia Fast Gel system according to the prescriptions given by the manufacture. […] The fluorescence emission was measured on a SPEX FLOUROLOG (Industries Inc, Edison N.J., USA) with excitation at 400 nm and emission scan from 400 nm to 550 nm. […]

[4] = Fluorescence titration emission spectra of FACI-46 (negative control); type: binding
Description: The strategy behind the design of the mutants was based on the tertiary structure of the bovine ACBP/acyl-CoA complex. Both Met-24 and Ala-53 interact directly with the acyl-chain of the acyl-CoA ligand, interacting with the omega-methyl group of long acyl-chains. Positioning of an environmentally sensitive group in one of these positions would therefore be expected to create ligand sensitive probes. Met-46 which is located outside the hydrophobic binding pocket in the loop between helix 2 and 3 was chosen to serve as a negative control which should not be sensitive to ligand binding.
as §3

- Kd (M24C-badan ACBP): 40 nM
- Kd (FACI-24 [1]): 10.2 ± 0.81 nM
- Downshift in emission maximum of FACI-24 (FACI-24 [2]): 42 nm
- Magnitude of emission of FACI-53, fold increase (FACI53): 2.7 fold
- Fluorescence emission maximum of FACI-53 with ligand (FACI53; 525 nm when no ligand present, excitation 400 nm): 492 nm
- Relative emission of FACI-53 at 495 nm, fold increase (FACI53; emission at 495 nm): 4.7 fold
Molecule: CCCCCCCCCCCC(=O)SCCNC(=O)CCNC(=O)[C@H](O)C(C)(C)COP(=O)(O)OP(=O)(O)OC[C@H]1O[C@@H](n2cnc3c(N)ncnc32)[C@H](O)[C@@H]1OP(=O)(O)O [C12:0-CoA, dodecanoyl-CoA]
- Kd (native bovine ACBP): 40 nM

B1: Phe-49_Cys49 badan derivative of bovine ACBP: Phe49 to Cys mutant of bovine ACBP labelled with badan, badan group exposed to the environment (conjugate, UniProt P07107 2-87, looked up, variant F49C)
Acyl-CoA-binding protein: T1 sequence (P07107 2-87 M25C) with C24M, F49C
modifications: badan label
notes: Phe49 to Cys mutant of bovine ACBP labelled with badan, badan group exposed to the environment
- Fluorescence response to addition of ligands [3]: did not respond to addition of any of the ligands

B2: FACI-46: badan derivative of M46C-bovine ACBP, negative control (conjugate, UniProt P07107 2-87, looked up, variant M46C)
Acyl-CoA-binding protein: T1 sequence (P07107 2-87 M25C) with C24M, M46C
modifications: badan label
notes: badan derivative of M46C-bovine ACBP, negative control
- Emission spectra changes of FACI-46 with ligands (words) [4]: did not show any emission spectra changes with any of the ligands
- Emission spectra changes of FACI-46 with ligands (words) ([4]; listed as FACI46): did not show changes in emission spectra with any of the tested ligands
